Key:
[1] = test system: selected kinases in HCT116 cells; assay: Immunoblot of selected kinases in HCT116 cells; assay type: cell-based; details: Western blot; for protein levels of Chk2, PKCδ, and SRPK1: HCT116, braftide, Fig. S12A
Protocol: (§1) Western blot band densities were quantified with ImageJ software (National Institutes of Health) and normalized to the indicated loading control. Statistical significance was determined through one-/two-way ANOVA, where indicated, followed by Tukey's honest significant difference post hoc test with corresponding p values (∗p < 0.05, ∗∗p < 0.002, ∗∗∗p < 0.0002, and ∗∗∗∗p < 0.0001). All graph bars represent the mean ± SD with individual data points per biological replicate with corresponding p values.

BRAF–CRAF protein levels = details: cited from earlier work
Text: RAF family members are known clients of the HSP90–CDC37 chaperone complex and rely on their interaction with the CDC37–HSP90 chaperone complex to maintain basal protein stability ([4]). […] Although the HSP90 and CDC37 interface is vast and dynamic ([7]), the αC helix–β4 loop is a well-defined structural motif conserved across RAF and other kinases ([29]). The RAF DIF, being ...

HCT116 cells = assay: WST-1 cell viability assay, HCT116; assay type: cell-based; details: HCT116, WST-1, 24 h
Protocol: (§5) HCT116 and WM3629 cells were seeded onto polylysine-coated, clear-bottomed, 96-well plates at 15(10)^3 cells per well and allowed to incubate for 24 h. Cells were treated with braftide and 17-AAG mixtures at indicated concentrations for 24 h (37 °C). The WST-1 cell viability assay was carried out according to the manufacturer's protocols (Roche; 11644807001) for 4 h, and absorbance readings were taken at 450 nM in a CLARIOstar plate reader. For the dose–response curves of braftide and 17-AAG, the data were fit to the 4-parameter logistic equation (dose–response fitting equation) in GraphPad Prism (Dotmatics): y=A1+(A2−A1)÷(1+10^(LOGx0−x)p)
(§6) Error bars are indicative of the SEM of each point.

CRAF = CRAF ubiquitination (IP of MBP-CRAF-FLAG, ubiquitin immunoblot); assay type: cell-based, human (HEK293); details: HEK293, MBP-CRAF-FLAG, 50 μM braftide, bortezomib pretreatment
Protocol: (§2) HEK293 cells were seeded at 1(10)^6 cells per well for a 6-well plate or 5(10)^6 for 10 cm dishes and incubated until 40% to 60% confluency. Transfection was carried out using a 1:3 DNA:PEI-MAX ratio in OPTI-MEM and allowed 48 h for protein expression. For peptide assays, 48 h post-transfection, cells were treated with TAT–braftide carried in OPTI-MEM at indicated concentrations. Cells were harvested in cold PBS. Harvested cells were lysed in 4% SDS or modified radioimmunoprecipitation assay (RIPA) for co-IP experiments. Quantification of total protein by the bicinchoninic acid assay was carried out according to the manufacturer's protocols (Pierce; catalog no.: 23225).
(§3) Transfected HEK293 cells were treated with the indicated treatments and harvested in cold PBS. […] Samples were analyzed via immunoblot.
(§4) Western blot band densities were quantified with ImageJ software (National Institutes of Health) and normalized to the indicated loading control. Statistical significance was determined through one-/two-way ANOVA, where indicated, followed by Tukey's honest significant difference post hoc test with corresponding p values (∗p < 0.05, ∗∗p < 0.002, ∗∗∗p < 0.0002, and ∗∗∗∗p < 0.0001). […]

WM3629 cells [2] = details: WM3629, reported; read-out: EC50, braftide, WM3629; cited from earlier work
Text: Based on the observed synergistic effects of inhibiting the ternary complex, the antiproliferative effects were explored using combinatorial treatment in two RAF-dimer–dependent cell lines: HCT116 and WM3629. HCT116 cells mainly rely on the wildtype BRAF–CRAF heterodimer and BRAF–BRAF homodimer to relay the MAPK signal, whereas WM3629 cells contain the BRAF D594G mutant, which is a kinase-dead mutant and depends on dimerization with CRAF for activation ([34]).

CDC37–CRAF interaction = assay: Co-IP of CDC37-FLAG with CRAF-HA in HCT116; assay type: cell-based; details: HCT116, 5 µM braftide, three biological replicates
CDC37–BRAF interaction = assay: Co-IP of CDC37-FLAG with BRAF-V5 in HEK293; assay type: cell-based, human (HEK293); details: HEK293, 25 μM braftide, bortezomib pretreatment
Protocol: as §2, §3, §4

WM3629 cells [3] = assay: WST-1 cell viability assay, WM3629; assay type: cell-based; details: WM3629, WST-1, 24 h
Protocol: as §5, §6

RAF kinase = details: in vitro and in cells; cited from earlier work
Text: The sequence of braftide mirrors the residues spanning the tail end of the αC helix and a region known as the αC helix–β4 loop, which includes three key residues: BRAF R509, L515, and M517, critical for RAF dimerization.

[4] = test system: MAPK proteins (BRAF, CRAF, MEK, pMEK, ERK, pERK); assay: Immunoblot of MAPK proteins in HCT116 cells; assay type: cell-based
Protocol: as §1

[5] = test system: MAPK proteins (BRAF, CRAF, MEK, pMEK, ERK, pERK); details: HCT116, braftide alone; cited from earlier work
Protocol: HCT116 cells were treated with 17-AAG alone or in combination with braftide (Fig. 5, C and D). HSP90 monotherapy (17-AAG) depleted CRAF kinase level at a concentration of 2 μM (Fig. 5C), whereas braftide monotherapy ([23]) depleted RAF kinase levels at a concentration of 10 μM. To investigate potential synergy, we assessed combinatorial treatments in HCT116 cells, using a fixed concentration of 500 nM of the primary drug (braftide) with increasing concentrations (0 to 1 μM) of the secondary drug (17-AAG) (Fig. 5D).

[6] = test system: CRAF–CDC37/HSP90 chaperone complex; assay: Co-IP of MBP-CRAF-FLAG with endogenous CDC37–HSP90 chaperone complex; assay type: cell-based, human (HEK293); details: HEK293, 50 μM braftide, 4 h, bortezomib pretreatment, three biological replicates
Protocol: as §2, §3, §4

For “GRKKRRQRRRPQ-miniPEG-TRHVNILLFM [Braftide]”, the “protein expression levels of downregulated kinases” value ([1]; HCT116, 10 μM braftide, 1 h, n = 9) was “reduced protein expression levels of GSK3α, S6, AKT1, TAK, FAK, BRAF, CRAF, MEK1/2, and ERK1/2”, the “protein levels of Chk2, PKCδ, and SRPK1” value [1] was “unaffected by Braftide treatment” and the “protein levels of Chk2, PKCδ, and SRPK1” value ([1]; listed as braftide) was “protein levels of these kinases remain unchanged after braftide treatment”. For the same substance, the “degradation of BRAF–CRAF protein levels” value (BRAF–CRAF protein levels) was “induces the degradation of BRAF–CRAF protein levels through the ubiquitin-26s proteasomal degradation system”, the “synergy of braftide and 17-AAG, HCT116” value (HCT116 cells) was “synergy between braftide and 17-AAG” and the CRAF ubiquitination (CRAF) was “increased CRAF ubiquitination”. The EC50 (WM3629 cells [2]) was 11.1 ± 1.12 µM, the “CDC37–CRAF interaction” value (CDC37–CRAF interaction) was “decreases its association with coimmunoprecipitated BRAF-V5 and CRAF-HA” and the “CDC37–CRAF interaction” value (CDC37–CRAF interaction; listed as braftide) was “reduced the CDC37–RAF interaction at lower doses than in HEK293 cells”. The “CDC37–BRAF complex” value (CDC37–BRAF interaction) was “reduced the CDC37–client BRAF–CRAF complex”, the “synergy of braftide and 17-AAG, WM3629” value (WM3629 cells [3]) was “synergy between braftide and 17-AAG” and the RAF kinase activity (RAF kinase) was “inhibits RAF kinase activity”. The “paradoxical activation induced by ATP-competitive inhibitors” value (RAF kinase) was “mitigates paradoxical activation induced by ATP-competitive inhibitors, both in vitro and in cells”, the “inhibition by monotherapy at 500 nM” value ([4]; HCT116, 500 nM single agent, immunoblot) was “Neither 17-AAG nor braftide monotherapy exhibited obvious inhibition” and the “MAPK pathway protein levels, proteomics samples” value ([4]; HCT116, 10 µM braftide, 1 hr, 37°C, n=3) was “decreases MAPK pathway protein levels”. For the same substance, the “concentration at which RAF kinase levels are depleted, braftide monotherapy” value [5] was 10 µM and the “association of CRAF with CDC37 and HSP90” value [6] was “reduced their association with CDC37 and HSP90 compared with the nontreated control”.
